# According to BindingDB's records for doi:10.1021/jm5006226 (Bristol Myers Squibb, 2014):
# Experiment: Antagonist activity at P2Y1 receptor in platelet-enriched human plasma assessed as 10 uM ADP-induced platelet aggregation preincubated for 1 min followed by ADP induction measured at 5 mins by aggregometric analysis
row,Structure (SMILES),IC50 [nM]
1,CC(C)(C)CN1CCC2(CC1)CN(c1ccccc1NC(=O)Nc1nc3ccc(Cl)nc3s1)c1c(O)ccc(Cl)c12,130
2,CC(C)(C)CN1CCC2(CC1)CN(c1ccccc1NC(=O)Nc1nc3ccc(Cl)nc3s1)c1c(O)cc(F)c(-c3ccc(F)cc3)c12,180
3,CC1(C)CN(c2ccccc2NC(=O)Nc2ccc(OC(F)(F)F)cc2)c2c(O)cc(F)c(-c3ccc(Cl)cc3)c21,240
4,CC1(C)CN(c2ccccc2NC(=O)Nc2ccc(OC(F)(F)F)cc2)c2c(O)cc(F)c(-c3ccc(Cl)s3)c21,130
5,CC1(C)CN(c2ccccc2NC(=O)Nc2ccc(OC(F)(F)F)cc2)c2c(O)cc(F)c(-c3ccc(C(F)(F)F)cn3)c21,110
6,CC1(C)CN(c2ccccc2NC(=O)Nc2ccc(OC(F)(F)F)cc2)c2c(O)cc(F)c(-c3ccc(C(F)(F)F)nc3)c21,150
7,CC1(C)CN(c2ccccc2NC(=O)Nc2ccc(OC(F)(F)F)cc2)c2c(O)cc(F)c(-c3cc(F)nc(F)c3)c21,160
8,CC1(C)CN(c2ccccc2NC(=O)Nc2ccc(OC(F)(F)F)cc2)c2c(O)cc(F)c(-c3ncc(F)cn3)c21,950
9,CC(C)(C)CN1CCC2(CC1)CN(c1ccccc1NC(=O)Nc1ccc(OC(F)(F)F)cc1)c1c(O)cc(F)c(-c3ccc(Cl)cc3)c12,200
10,CC(C)(C)CN1CCC2(CC1)CN(c1ccccc1NC(=O)Nc1ccc(OC(F)(F)F)cc1)c1c(O)cc(F)c(-c3ccc(F)cc3)c12,140
11,CC1(C)CN(c2ccccc2NC(=O)Nc2nc3ccc(Cl)nc3s2)c2c(O)ccc(Cl)c21,1400
12,CC1(C)CN(c2ccccc2NC(=O)Nc2ccc(OC(F)(F)F)cc2)c2c(O)ccc(Cl)c21,870
13,CC1(CC(F)(F)F)CN(c2ccccc2NC(=O)Nc2ccc(OC(F)(F)F)cc2)c2c(O)ccc(Cl)c21 (stereo not drawn),2900
14,CCOC(=O)C1(C)CN(c2ccccc2NC(=O)Nc2ccc(OC(F)(F)F)cc2)c2c(O)ccc(Cl)c21 (stereo not drawn),3100
15,CCOC(=O)C1(C)CN(c2ccccc2NC(=O)Nc2nc3ccc(Cl)nc3s2)c2c(O)ccc(Cl)c21 (stereo not drawn),610
16,CC1(C)CN(c2ccccc2NC(=O)Nc2ccc(OC(F)(F)F)cc2)c2c(O)ccc(-c3ccccc3F)c21,80
17,CC1(C)CN(c2ccccc2NC(=O)Nc2ccc(OC(F)(F)F)cc2)c2c(O)ccc(-c3ccc(F)cc3F)c21,160
18,CC1(C)CN(c2ccccc2NC(=O)Nc2ccc(OC(F)(F)F)cc2)c2c(O)ccc(-c3cc(F)cc(F)c3)c21,180
19,CC1(C)CN(c2ccccc2NC(=O)Nc2ccc(OC(F)(F)F)cc2)c2c(O)cc(F)c(-c3ccc(F)cc3)c21,190
20,CC1(C)CN(c2ccccc2NC(=O)Nc2ccc(OC(F)(F)F)cc2)c2c(O)c(F)cc(-c3ccc(Cl)cc3)c21,300
21,CC1(C)CN(c2ccccc2NC(=O)Nc2ccc(OC(F)(F)F)cc2)c2c(O)cc(F)c(-c3cnc(Cl)cn3)c21,260

# Results, then the compound that gave them:
row,IC50 [nM],Structure (SMILES)
1,180,CC1(C)CN(c2ccccc2NC(=O)Nc2ccc(OC(F)(F)F)cc2)c2c(O)ccc(-c3ccccc3)c21
2,240,CC1(C)CN(c2ccccc2NC(=O)Nc2ccc(OC(F)(F)F)cc2)c2c(O)ccc(-c3cccc(F)c3)c21
3,160,CC1(C)CN(c2ccccc2NC(=O)Nc2ccc(OC(F)(F)F)cc2)c2c(O)ccc(-c3ccc(F)cc3)c21
4,210,CC1(C)CN(c2ccccc2NC(=O)Nc2ccc(OC(F)(F)F)cc2)c2c(O)ccc(-c3ccc(Cl)cc3)c21
5,230,CC1(C)CN(c2ccccc2NC(=O)Nc2ccc(OC(F)(F)F)cc2)c2c(O)ccc(-c3ccc(C(F)(F)F)cc3)c21
6,400,CC1(C)CN(c2ccccc2NC(=O)Nc2ccc(OC(F)(F)F)cc2)c2c(O)ccc(-c3ccc(F)c(F)c3)c21
7,230,CC1(C)CN(c2ccccc2NC(=O)Nc2nc3ccc(Cl)nc3s2)c2c(O)ccc(-c3ccc(F)cc3)c21
8,90,CC1(C)CN(c2ccccc2NC(=O)Nc2csc(Cl)n2)c2c(O)ccc(-c3ccc(F)cc3)c21
9,430,Cc1nc(NC(=O)Nc2ccccc2N2CC(C)(C)c3c(-c4ccc(F)cc4)ccc(O)c32)cs1
10,50,CC(C)CN1CCCC1c1ccc(NC(=O)Nc2ccccc2N2CC(C)(C)c3c(-c4ccc(F)cc4)ccc(O)c32)cc1 (stereo not drawn)
11,90,CC(C)(C)CN1CCCC1c1ccc(NC(=O)Nc2ccccc2N2CC(C)(C)c3c(-c4ccc(F)cc4)ccc(O)c32)cc1 (stereo not drawn)
12,390,CC1(C)CN(c2ccccc2NC(=O)Nc2ccc(OC(F)(F)F)cc2)c2c(O)c(F)cc(-c3ccc(F)cc3)c21
